The source of these data is paper PMC11089505, “Structural Elucidation and Antiviral Activity of Covalent Cathepsin L Inhibitors” (Journal of Medicinal Chemistry, 2024).

Data set [1] has as its target CatL. The conditions noted are these: cited from earlier work.
Data set [2] has as its system SARS-CoV-2-GFP in Vero E6 cells. The data set can be described thus: microbe, parasite or virus in culture. The class given is cell-based.
Data set [3] deals with T1, CatL (Homo sapiens, UniProt P07711, T223A).
T1 construct: made in house; host or cells: Komagataella pastoris strain GS115
T1 sequence (P07711 114-333 T223A): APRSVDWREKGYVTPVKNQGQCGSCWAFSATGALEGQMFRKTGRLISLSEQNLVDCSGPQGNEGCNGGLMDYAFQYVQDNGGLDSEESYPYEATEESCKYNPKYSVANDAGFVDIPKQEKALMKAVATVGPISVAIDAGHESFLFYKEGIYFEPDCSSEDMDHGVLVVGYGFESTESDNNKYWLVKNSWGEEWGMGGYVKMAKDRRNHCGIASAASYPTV
Kind of data set: CatL inhibition assay (Ki), substrate Z-RR-AMC. The note with it: read-out: Residual activity (Vi/V0). The class given is biochemical. On the procedure: (§1) Experiments were performed in a solution of 50 mM sodium acetate, pH 4.0, 50 mM NaCl, 0.1% PEG 6000, and 5 mM DTT. Distinct assays with epoxide inhibitors at pH 6.0 were performed in 50 mM sodium phosphate buffer, 50 mM NaCl, 5 mM DTT, 0.1% PEG 6000, adjusted to pH 6.0.
(§2) M1000 pro plate reader (Tecan), the fluorescent peptide substrate Z-RR-AMC, and excitation and emission wavelengths of 370 and 460 nm, respectively.
(§3) At first, the inhibitor concentration span was optimized for each inhibitor and the assay buffer. For this initial screening, CatL (5 nM) was mixed with different concentrations of inhibitors (1 nM–50 μM) to determine the range of their inhibition. […] Reaction data were fitted to the […] in GraphPad Prism 9 software: Y = bottom + (top – bottom)/(1 + 10^∧((log IC50 – X) × HillSlope)); X is the log of dose or concentration, Y is the response (fluorescence signal), decreasing as X increases, top and bottom are the plateaus in the same units as Y, log IC50 same log units as X, HillSlope is the slope factor or called the Hill slope.

Data set [4] concerns the target SARS-CoV-2 Mpro (Severe acute respiratory syndrome coronavirus 2, UniProt P0DTD1). The class given is binding. The conditions noted are these: for 2:1, Tm average (Mpro): 2:1 compound to protein.
In data set [5] the target is T1, CatL. The data set can be described thus: NanoDSF, thermal stability of CatL. It counts as binding. The note with it: for 2:1, Tm average (CatL): 2:1 compound to protein; for 20:1, Tm average (CatL): 20:1 compound to protein.
For data set [6], the target named is T1, CatL. Kind of data set: CatL inactivation assay comparing epoxides at pH 6 and pH 4. The class given is biochemical. On the procedure:
as §1, §2, §3
Figure S7. Inactivation of CatL.
(1 picture or pasted object on this page, not shown here)

Data set [7] can be described thus: Cell viability assay (CellTiter-Blue). The conditions noted are these: African green monkey. (Resazurin is reduced to fluorescent resorufin, in cell work by metabolically active cells.)
A short description of data set [8]: in vitro. The conditions noted are these: African green monkey.
Setting [9] is: Severe acute respiratory syndrome coronavirus 2, Vero C1008, 24 h, read-out: EC50 (after 24 h).
Where [10] appears, read: Severe acute respiratory syndrome coronavirus 2, Vero C1008, 48 h, read-out: EC50 (after 48 h).

“And” between values parts separate entries of the source, which are not always exact repeats. Equal entries are not always repeated. Where two headings read alike, the source gives them in different places. Square brackets hold non-standard residues; d marks the D form. Peptide text beside a SMILES is read from it. Nle = CCCC[C@H](N)C(=O)O

With `CSCCC(C=O)NC(=O)C(CC(C)C)NC(=O)C(CC(C)C)NC(C)=O` (stereo not drawn) [CI-II] (Ac-Leu-Leu-Met-aldehyde; configuration not given here), the Ki (commonly a measure of affinity in units of concentration, obtained from inhibition or displacement) in data set [1] (Sasaki et al., read-out: Ki) was 0.6 nM.

Consider `CC[C@H](C)[C@H](NS(=O)(=O)c1cccc2ccccc12)C(=O)N[C@H](C=O)Cc1c[nH]c2ccccc12` [CLI-IV, 1-Naphthalenesulfonyl-Ile-Trp-aldehyde], for which the EC50 (commonly the concentration giving half of the maximal effect) in data set [2] (Severe acute respiratory syndrome coronavirus 2, Vero C1008, 24 h, read-out: EC50 (24 h)) was 7.3 nM; in data set [2] (setting [9]) it was 7.26 nM; in data set [2] (Severe acute respiratory syndrome coronavirus 2, Vero C1008, 48 h, read-out: EC50 (48 h)), < 500 nM; in data set [2] (setting [10]), 411 nM; in data set [2] (read-out: EC50 (24 h)), < 10 nM. For the same molecule, in data set [3] (CLI-IV 0.280 nM), the remaining activity at 0.00028 µM amounted to 92.4%. The remaining activity at 0.0004 µM in data set [3] (CLI-IV 0.400 nM) was 94.2%. Besides, the remaining activity at 0.00058 µM in data set [3] (CLI-IV 0.580 nM) turned out to be 89.3%. Also, in data set [3] (CLI-IV 0.820 nM), the remaining activity at 0.00082 µM came to 92.1%. The remaining activity at 0.00168 µM in data set [3] (CLI-IV 1.680 nM) came to 78.4%. In addition, the remaining activity at 0.0024 µM in data set [3] (CLI-IV 2.400 nM) was 60.1%. Besides, the remaining activity at 0.00343 µM in data set [3] (CLI-IV 3.430 nM) was 40.4%. Besides, the remaining activity at 0.007 µM in data set [3] (CLI-IV 7.000 nM) came to 11%. Further, in data set [3] (CLI-IV 10.000 nM), the remaining activity at 0.01 µM came to 5.5%. Besides, in data set [1] (Table S1, SI reference list), the IC50 (commonly the point on the concentration scale where inhibition reaches its midpoint) is 1.9 nM. Further, the “2:1, Tm average (Mpro)” value in data set [4] is 54.6 °C.

Consider `CN(C)C(=O)C(Cc1ccccc1)NC(=O)[C@H]1O[C@@H]1C(=O)NCCc1ccccn1` (stereo partly drawn) [CLIK148, N-(L-3-trans-(2-pyridin-2-yl-ethylcarbamoyl)-oxirane-2-carbonyl)-L-Phe-dimethylamide], for which, in data set [5] (5 µM CatL, pH 5.0, 2% DMSO, 2:1), the “ΔTm (for CatL), 2:1 compound to protein mixing ratio” value was 13,8 ± 0,1 °C and 13.8 °C. Moreover, in data set [5] (5 µM CatL, pH 5.0, 2% DMSO, 20:1), the “ΔTm (for CatL), 20:1 compound to protein mixing ratio” value was 13,9 ± 0,2 °C and 13.9 °C. Further, the “2:1, Tm average (CatL)” value in data set [5] came to 76.9 °C. Besides, in data set [5], the “20:1, Tm average (CatL)” value turned out to be 77 °C. For the same molecule, in data set [5] (Table S1, 2:1 ratio), the “ΔTm [K] for CatL, 2:1 ratio” value was determined as 13.8 ± 0.1 K. Also, the “Inactivation Rate” value in data set [6] (CLIK148, pH 4, 0.44 µM (440 nM)) was 0.0004006 per second and 0.0003231 per second and 0.0004659 per second; in data set [6] (CLIK148, pH 4, 0.99 µM (990 nM)) it was 0.0009097 per second and 0.0007894 per second and 0.0009283 per second; in data set [6] (CLIK148, pH 4, 1.48 µM (1480 nM)), 0.00137 per second and 0.001226 per second and 0.001313 per second; in data set [6] (CLIK148, pH 4, 2.22 µM (2220 nM)), 0.001929 per second and 0.00189 per second and 0.001923 per second; in data set [6] (CLIK148, pH 4, 3.33 µM (3330 nM)) it was 0.00288 per second and 0.002823 per second and 0.002796 per second; in data set [6] (CLIK148, pH 4, 5.00 µM (5000 nM)) it was 0.004395 per second and 0.004358 per second and 0.004463 per second. Moreover, the “Inactivation Rate” value in data set [6] (CLIK148, pH 6, 0.44 µM (440 nM)) is 0.000984 per second and 0.001005 per second and 0.00104 per second; in data set [6] (CLIK148, pH 6, 0.66 µM (660 nM)) it was 0.001629 per second and 0.001484 per second and 0.001519 per second; in data set [6] (CLIK148, pH 6, 0.99 µM (990 nM)), 0.002031 per second and 0.002049 per second and 0.002115 per second; in data set [6] (CLIK148, pH 6, 1.48 µM (1480 nM)), 0.002988 per second and 0.003179 per second and 0.003258 per second; in data set [6] (CLIK148, pH 6, 2.22 µM (2220 nM)), 0.004844 per second and 0.004638 per second and 0.004732 per second; in data set [6] (CLIK148, pH 6, 3.33 µM (3330 nM)), 0.00752 per second and 0.006254 per second and 0.007241 per second. Moreover, the “Inactivation Rate” value in data set [6] (CLIK148, pH 6, 5.00 µM (5000 nM)) was 0.01516 per second and 0.01256 per second and 0.01191 per second. In addition, the figures for the EC50 in data set [2] (setting [9]) and in data set [2] (setting [10]) were 282 nM and 2780 nM, respectively. For the same molecule, the “2:1, Tm average (Mpro)” value in data set [4] amounted to 54.8 °C. The viability (in general, a read-out of living cells in per cent, often relative to untreated cells) at 48 h, 1e-05 µM in data set [7] is 99.3%. Also, in data set [7], the viability at 48 h, 0.0001 µM stood at 100%. In addition, the viability at 48 h, 0.001 µM in data set [7] was 98%. Further, the viability at 48 h, 0.01 µM in data set [7] worked out at 101%. The viability at 48 h, 0.1 µM in data set [7] amounted to 98.3%. In data set [7], the viability at 48 h, 1 µM turned out to be 104%. Besides, the viability at 48 h, 10 µM in data set [7] was found to be 110%.

With `CC(C)C[C@H](NC(=O)[C@H]1O[C@@H]1C(=O)O)C(=O)NCCCCN=C(N)N` [E-64, 3-[[[(1S)-1-[[[4-[(Aminoiminomethyl)amino]butyl]amino]carbonyl]-3-methylbutyl]amino]carbonyl]-(2S.3S)-oxiranecarboxylic acid], the “ΔTm [K] for CatL, 2:1 ratio” value in data set [5] is 4.1 ± 0.4 K. For the same molecule, in data set [5], the “2:1, Tm average (CatL)” value came to 67.2 °C. For the same molecule, the “20:1, Tm average (CatL)” value in data set [5] was 76.9 °C. Further, the “ΔTm (for CatL), 2:1 compound to protein mixing ratio” value in data set [5] (pH 5) was 4,1 ± 0,4 °C and 4.1 °C. In data set [5] (pH 5), the “ΔTm (for CatL), 20:1 compound to protein mixing ratio” value is 13,8 ± 0,1 °C and 13.8 °C. Besides, the “Inactivation Rate” value in data set [6] (E-64, pH 4, 19.76 nM) was 0.0008123 per second and 0.00102 per second; in data set [6] (E-64, pH 4, 29.64 nM), 0.001302 per second and 0.001598 per second; in data set [6] (E-64, pH 4, 44.45 nM) it was 0.002006 per second and 0.002388 per second; in data set [6] (E-64, pH 4, 66.68 nM), 0.003192 per second and 0.003338 per second; in data set [6] (E-64, pH 4, 100.01 nM), 0.004626 per second and 0.004922 per second; in data set [6] (E-64, pH 4, 225.00 nM), 0.01185 per second and 0.01036 per second. For the same molecule, the “Inactivation Rate” value in data set [6] (E-64, pH 6, 19.76 nM) is 0.0005258 per second and 0.000578 per second; in data set [6] (E-64, pH 6, 29.64 nM), 0.0007668 per second and 0.0008131 per second; in data set [6] (E-64, pH 6, 44.45 nM) it was 0.001154 per second and 0.001247 per second; in data set [6] (E-64, pH 6, 66.68 nM), 0.001742 per second and 0.001837 per second; in data set [6] (E-64, pH 6, 100.01 nM), 0.002659 per second and 0.002717 per second; in data set [6] (E-64, pH 6, 225.00 nM) it was 0.006042 per second and 0.006005 per second. Also, in data set [4] (8 µM Mpro, pH 7.5, 2% DMSO, 2:1), the “ΔTm (for Mpro), 2:1 compound to protein mixing ratio” value was -1,0 ± 0,2 °C and -1 °C. In addition, the “2:1, Tm average (Mpro)” value in data set [4] is 54.4 °C.

Turning to `CC(C)C[C@H](NC(=O)OCc1ccccc1)C(=O)N[C@@H](CC1CCNC1=O)C(O)S(=O)(=O)O` (stereo partly drawn) [GC-376], in data set [1] (read-out: Ki of CatL inhibition), the Ki was 0.26 nM.

Regarding `CCCC[C@@H](C=O)NC(=O)[C@H](CC(C)C)NC(=O)[C@H](CC(C)C)NC(C)=O` [MG101] (Ac-Leu-Leu-[Nle]-aldehyde), in data set [8], the viability at 48 h, 1e-05 µM worked out at 103%; the viability at 48 h, 0.0001 µM came out at 102%; the viability at 48 h, 0.001 µM is 102%; the viability at 48 h, 0.01 µM was 102%. Also, in data set [8], the viability at 48 h, 0.1 µM came to 102%; the viability at 48 h, 1 µM was 101%; the viability at 48 h, 10 µM is 63%.
